Our source for the IC50 values is patent US20260132132A1, “3A,4,5,6-TETRAHYDRO-1 H-PYRAZOLO[3,4-C]PYRIDIN-7(7AH)-ONE DERIVATIVES AS FACTOR XIIA INHIBITORS” (KALVISTA PHARMACEUTICALS LIMITED, priority 2022, published 2026).

As a reminder, the IC50 is the concentration that gives 50% inhibition.

The target of the assay is T1, Human Factor XIIa (hFXIIa) (Homo sapiens, UniProt P00748).
T1 construct: purchased Enzyme Research Laboratories
T1 sequence (P00748 373-615 limits assumed): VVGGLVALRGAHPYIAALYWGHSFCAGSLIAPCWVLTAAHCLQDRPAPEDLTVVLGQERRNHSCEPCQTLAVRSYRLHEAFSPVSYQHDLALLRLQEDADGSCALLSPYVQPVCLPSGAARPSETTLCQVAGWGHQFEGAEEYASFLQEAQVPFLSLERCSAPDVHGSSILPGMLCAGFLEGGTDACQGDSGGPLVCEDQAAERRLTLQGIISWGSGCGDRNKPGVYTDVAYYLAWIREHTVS
T1 sequence (P00748 20-372 partner limits assumed): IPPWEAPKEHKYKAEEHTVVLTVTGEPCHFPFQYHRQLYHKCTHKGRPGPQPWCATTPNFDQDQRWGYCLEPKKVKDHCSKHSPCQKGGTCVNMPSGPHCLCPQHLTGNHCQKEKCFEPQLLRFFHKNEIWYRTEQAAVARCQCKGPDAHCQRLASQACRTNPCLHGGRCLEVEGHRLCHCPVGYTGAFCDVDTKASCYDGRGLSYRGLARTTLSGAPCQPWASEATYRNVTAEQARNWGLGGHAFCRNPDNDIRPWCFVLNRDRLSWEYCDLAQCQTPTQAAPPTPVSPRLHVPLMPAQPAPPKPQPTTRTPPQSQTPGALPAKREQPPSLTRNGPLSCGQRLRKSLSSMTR
Kind of assay: Determination of Human Factor XIIa (hFXIIa) inhibition, fluorogenic substrate IC50 assay. The class given is biochemical. Conditions: fluorogenic substrate H-DPro-Phe-Arg-AFC at Km, 25° C., read-out: Human FXIIa IC50. As for the experimental part:
Determination of Human Factor XIIa (hFXIIa) inhibition
The Km for the cleavage of the substrate by hFXIIa was determined by standard transformation of the Michaelis-Menten equation, with subsequent inhibition assays performed at substrate Km concentration.

Take `O=C(NCc1cnccc1Cl)c1nn(-c2cccc(Cl)c2)c2c1CCN(c1cccc(CN3CCCCC3)c1)C2=O` [Example 1174, 1-(3-chlorophenyl)-N-((4-chloropyridin-3-yl)methyl)-7-oxo-6-(3-(piperidin-1-ylmethyl)phenyl)-4,5,6,7-tetrahydro-1H-pyrazolo[3,4-c]pyridine-3-carboxamide]: the IC50 lay in the range of 100 to 300 nM.
In the case of `Cc1cc(CNC(=O)c2nn(-c3cccc(Cl)c3)c3c2CCN(c2ccc4c(c2)CN(CCO)CC4)C3=O)ccn1` [Example 1171, 1-(3-chlorophenyl)-6-(2-(2-hydroxyethyl)-1,2,3,4-tetrahydroisoquinolin-7-yl)-N-((2-methylpyridin-4-yl)methyl)-7-oxo-4,5,6,7-tetrahydro-1H-pyrazolo[3,4-c]pyridine-3-carboxamide] it was 10 to 100 nM.
In the case of `Cc1nc2c(C(=O)NCC3CC3)nn(-c3cccc(Cl)c3F)c2c(=O)n1-c1ccc2c(c1)C(=O)N(C)CCO2` [Example 3023, 1-(3-chloro-2-fluorophenyl)-N-(cyclopropylmethyl)-5-methyl-6-(4-methyl-5-oxo-2,3,4,5-tetrahydrobenzo[f][1,4]oxazepin-7-yl)-7-oxo-6,7-dihydro-1H-pyrazolo[4,3-d]pyrimidine-3-carboxamide] it was 300 to 1000 nM.
In the case of `CN1CCc2cc(N3CCc4c(C(=O)NCC5CC5)nn(-c5cccc(Cl)c5)c4C3=O)ccc2C1=O` [Example 1190, 1-(3-chlorophenyl)-N-(cyclopropylmethyl)-6-(2-methyl-1-oxo-1,2,3,4-tetrahydroisoquinolin-6-yl)-7-oxo-4,5,6,7-tetrahydro-1H-pyrazolo[3,4-c]pyridine-3-carboxamide] it was 10000 to 40000 nM; in that of `CN1CCc2ccc(N3CCc4c(CO)nn(-c5cccc(Cl)c5)c4C3=O)cc2C1=O` [Example 1183, 7-(1-(3-chlorophenyl)-3-(hydroxymethyl)-7-oxo-1,4,5,7-tetrahydro-6H-pyrazolo[3,4-c]pyridin-6-yl)-2-methyl-3,4-dihydroisoquinolin-1(2H)-one], 1000 to 3000 nM.
For the compound `Cc1cc(CNC(=O)c2nn(-c3cccc(Cl)c3)c3c2CCN(c2ccc4c(c2)C(=O)N(CC2CCCO2)CC4)C3=O)nn1C` (stereo not shown) [Example 1293, 1-(3-chlorophenyl)-N-((1,5-dimethyl-1H-pyrazol-3-yl)methyl)-7-oxo-6-(1-oxo-2-((tetrahydrofuran-2-yl)methyl)-1,2,3,4-tetrahydroisoquinolin-7-yl)-4,5,6,7-tetrahydro-1H-pyrazolo[3,4-c]pyridine-3-carboxamide], the IC50 lay within 100 to 300 nM.
In the case of `CCNC(=O)c1nn(-c2cccc(Cl)c2)c2c1CCN(c1cccc(N3C(=O)C[C@H]4C[C@H]43)c1)C2=O` (single isomer, unassigned) [Example 1407, 1-(3-Chlorophenyl)-N-ethyl-7-oxo-6-(3-((1R*,5R*)-3-oxo-2-azabicyclo[3.1.0]hexan-2-yl)phenyl)-4,5,6,7-tetrahydro-1H-pyrazolo[3,4-c]pyridine-3-carboxamide] it was 10000 to 40000 nM; in that of `C[C@H](O)CN1CCc2ccc(N3CCc4c(C(=O)NCC5CC5)nn(-c5cccc(Cl)c5)c4C3=O)cc2C1` [Example 1070, (S)-1-(3-chlorophenyl)-N-(cyclopropylmethyl)-6-(2-(2-hydroxypropyl)-1,2,3,4-tetrahydroisoquinolin-7-yl)-7-oxo-4,5,6,7-tetrahydro-1H-pyrazolo[3,4-c]pyridine-3-carboxamide], 100 to 300 nM.
In the case of `Cc1cnccc1CNC(=O)c1nn(-c2cccc(Cl)c2)c2c1CCN(c1ccc3c(c1)CN(CCO)CC3)C2=O` [Example 1163, 1-(3-chlorophenyl)-6-(2-(2-hydroxyethyl)-1,2,3,4-tetrahydroisoquinolin-7-yl)-N-((3-methylpyridin-4-yl)methyl)-7-oxo-4,5,6,7-tetrahydro-1H-pyrazolo[3,4-c]pyridine-3-carboxamide] it was 10 to 100 nM; in that of `NC(=O)CN1CCc2ccc(N3CCc4c(C(=O)NCC5CC5)nn(-c5cccc(Cl)c5)c4C3=O)cc2C1` [Example 1033, 6-(2-(2-amino-2-oxoethyl)-1,2,3,4-tetrahydroisoquinolin-7-yl)-1-(3-chlorophenyl)-N-(cyclopropylmethyl)-7-oxo-4,5,6,7-tetrahydro-1H-pyrazolo[3,4-c]pyridine-3-carboxamide], 1000 to 3000 nM.
On to `CN(C)C(=O)c1csc(N2CCc3c(C(=O)NCC4CC4)nn(-c4cccc(Cl)c4)c3C2=O)c1` [Example 1295, 1-(3-chlorophenyl)-N-(cyclopropylmethyl)-6-(4-(dimethylcarbamoyl)thiophen-2-yl)-7-oxo-4,5,6,7-tetrahydro-1H-pyrazolo[3,4-c]pyridine-3-carboxamide], for which the IC50 fell in the range of 10000 to 40000 nM.
The result for `Cc1cc(CNC(=O)c2nn(-c3cccc(Cl)c3)c3c2CCN(c2cccc(CN4CCCCC4)c2)C3=O)[nH]n1` [Example 1168, 1-(3-chlorophenyl)-N-((3-methyl-1H-pyrazol-5-yl)methyl)-7-oxo-6-(3-(piperidin-1-ylmethyl)phenyl)-4,5,6,7-tetrahydro-1H-pyrazolo[3,4-c]pyridine-3-carboxamide] reads 10 to 100 nM.
Turning to `CN1CCc2ccc(N3CCc4c(C(=O)O)nn(-c5cccc(Cl)c5)c4C3=O)cc2C1=O` [Example 1182, 1-(3-chlorophenyl)-6-(2-methyl-1-oxo-1,2,3,4-tetrahydroisoquinolin-7-yl)-7-oxo-4,5,6,7-tetrahydro-1H-pyrazolo[3,4-c]pyridine-3-carboxylic acid], the IC50 is 3000 to 10000 nM.
As for `CN1CCc2ccc(N3CCc4c(C(=O)NCC56CC(CO)(CCO5)C6)nn(-c5cccc(Cl)c5)c4C3=O)cc2C1` [Example 1046, 1-(3-chlorophenyl)-N-((5-(hydroxymethyl)-2-oxabicyclo[3.1.1]heptan-1-yl)methyl)-6-(2-methyl-1,2,3,4-tetrahydroisoquinolin-7-yl)-7-oxo-4,5,6,7-tetrahydro-1H-pyrazolo[3,4-c]pyridine-3-carboxamide], the IC50 was in the range of 300 to 1000 nM.
In the case of `O=C(NCC1CC1)c1nn(-c2cccc(Cl)c2)c2c1CCN(c1ccc3c(c1)CN(CCCF)CC3)C2=O` [Example 1080, 1-(3-chlorophenyl)-N-(cyclopropylmethyl)-6-(2-(3-fluoropropyl)-1,2,3,4-tetrahydroisoquinolin-7-yl)-7-oxo-4,5,6,7-tetrahydro-1H-pyrazolo[3,4-c]pyridine-3-carboxamide] it was 100 to 300 nM.
The result for `CCN1CCc2cc(C)c(N3CCc4c(C(=O)NCC5CC5)nn(-c5cccc(Cl)c5)c4C3=O)cc2C1` [Example 1054, 1-(3-Chlorophenyl)-N-(cyclopropylmethyl)-6-(2-ethyl-6-methyl-1,2,3,4-tetrahydroisoquinolin-7-yl)-7-oxo-4,5,6,7-tetrahydro-1H-pyrazolo[3,4-c]pyridine-3-carboxamide] reads 100 to 300 nM; that for `CN(CCO)C(=O)c1cccc(N2CCc3c(C(=O)NCC4CC4)nn(-c4cccc(Cl)c4)c3C2=O)c1` [Example 1312, 1-(3-chlorophenyl)-N-(cyclopropylmethyl)-6-(3-((2-hydroxyethyl)(methyl)carbamoyl)phenyl)-7-oxo-4,5,6,7-tetrahydro-1H-pyrazolo[3,4-c]pyridine-3-carboxamide], 3000 to 10000 nM; that for `O=C(NCc1ccccc1)c1nn(-c2cccc(Cl)c2)c2c1CCN(c1cccc(CN3CCCC3)c1)C2=O` [Example 1017, N-benzyl-1-(3-chlorophenyl)-7-oxo-6-(3-(pyrrolidin-1-ylmethyl)phenyl)-4,5,6,7-tetrahydro-1H-pyrazolo[3,4-c]pyridine-3-carboxamide], 300 to 1000 nM.
Take `COCc1nn(-c2cccc(Cl)c2)c2c1CCN(c1ccc3c(c1)C(=O)N(C)CC3)C2=O` [Example 1184, 7-(1-(3-chlorophenyl)-3-(methoxymethyl)-7-oxo-1,4,5,7-tetrahydro-6H-pyrazolo[3,4-c]pyridin-6-yl)-2-methyl-3,4-dihydroisoquinolin-1(2H)-one]: the IC50 lay in the range of 1000 to 3000 nM.
Consider `COCCN(C)C(=O)c1cccc(N2CCc3c(C(=O)NCC4CC4)nn(-c4cccc(Cl)c4)c3C2=O)c1` [Example 1311, 1-(3-chlorophenyl)-N-(cyclopropylmethyl)-6-(3-((2-methoxyethyl)(methyl)carbamoyl)phenyl)-7-oxo-4,5,6,7-tetrahydro-1H-pyrazolo[3,4-c]pyridine-3-carboxamide], for which the IC50 lay within 3000 to 10000 nM.
In the case of `COc1cnccc1CNC(=O)c1nn(-c2cccc(Cl)c2)c2c1CCN(c1ccc3c(c1)CN(CCO)CC3)C2=O` [Example 1172, 1-(3-chlorophenyl)-6-(2-(2-hydroxyethyl)-1,2,3,4-tetrahydroisoquinolin-7-yl)-N-((3-methoxypyridin-4-yl)methyl)-7-oxo-4,5,6,7-tetrahydro-1H-pyrazolo[3,4-c]pyridine-3-carboxamide] it was 10 to 100 nM; in that of `O=C(NCC1CC1)c1nn(-c2cccc(Cl)c2)c2c1CCN(c1ccc3c(c1)CN(CCF)CC3)C2=O` [Example 1175, 1-(3-chlorophenyl)-N-(cyclopropylmethyl)-6-(2-(2-fluoroethyl)-1,2,3,4-tetrahydroisoquinolin-7-yl)-7-oxo-4,5,6,7-tetrahydro-1H-pyrazolo[3,4-c]pyridine-3-carboxamide], 100 to 300 nM.
